Assay results: US8927504B2, “Combined use of dipeptidyl peptidase 4 inhibitor and sweetener” (Mitsubishi Tanabe Pharma Corporation, priority 2007, dated 2015)

Tests used:
active GLP-1 in plasma [1] = assay: GLP-1 secretion-stimulating action by combined use of DPP4 inhibitor and sweetener (1), Example 2; assay type: in vivo, mouse; conditions: C57BL/6J mice
Procedure: Male SD(CD)/Crj rats (Charles River Laboratories Japan, Inc.) (6-week-old at time of use) or male C57BL/6J mice (Clea Japan, Inc.) (9-week-old at time of use) were used in the test.
These study animals were used in the test after first grouping according to body weight. The animals were orally administered (10 mL/kg) a test DPP4 inhibitor (or purified water as a control). At 30 minutes after administration, the animals were then orally administered (10 mL/kg) a solution of a test sweetener (or purified water as a control) followed by collecting blood samples at 0, 30, 60, 180 and 300 minutes after administration. These samples were then measured for concentrations of active GLP-1 in plasma.
Measurement of plasma active GLP-1 concentrations was carried out in the same manner as (1) of Example 1 above.
The measurement results were tested for the presence of a significant difference between groups by comparing the sweetener-loaded groups with the control group using Dunnett's multiple comparison test (two-sided test). Here, a P value less than 5% was considered statistically significant, and statistical analysis software (EXSAS: Biological Experimental Data Statistical Analysis System, Arm Systex Co., Ltd.) was used to analyze the data.
C57BL/6J mice were used for the study animals. […]

[2] = Body weight-reducing test using DIO (diet-induced obesity) mice (1), Example 3; assay type: in vivo, mouse; conditions: Compound A alone 10 mg/100 g in-feed; high fat diet-fed C57BL/6J mice
Procedure: High fat diet-fed, male C57BL/6J mice (Clea Japan, Inc.) were used in the test.
Fed a high fat diet was carried out by allowing 3-week-old, male C57BL/6J mice (Clea Japan, Inc.) to free access to a high-fat diet having 37.2 w/w % fat content and 5.578 kcal/g calorie level (available from Oriental Yeast Co., Ltd.) for feed. Normal diet control mice were allowed free access to CRF-1 (fat content: 5.7 w/w %, calorie level: 3.59 kcal/g, available from Oriental Yeast Co., Ltd.).
The mice were used in the test after housing to age 39 weeks while fed a high fat diet in this manner.
These study animals were used in the test after first grouping according to body weight and blood sugar level.
The animals were administered test DPP4 inhibitor and test sweetener either orally or in-feed. […]
Body weight and food intake were measured over time after the start of administration of the test substances.
Moreover, in the case body weight-reducing effect was observed, body composition was measured using a laboratory mouse X-ray body fat percentage measuring device (PIXImus2, GE Medical Systems Inc.) under pentobarbital anesthesia (70 mg/kg, i.p.). […]

[3] = administration to mice; JP H6-65080; cited from earlier work
active GLP-1 in plasma [4] = assay: GLP-1 secretion-stimulating action by combined use of DPP4 inhibitor and sweetener (2), Example 4; assay type: in vivo, mouse; conditions: 1 hour after dosing, relative to 100 for Compound A′ and fructooligosaccharide 6 g/kg, C57BL/6J mice
Procedure: Male C57BL/6J mice (Clea Japan, Inc.) (7-week-old at time of use) were used in the test.
These study animals were used in the test after first fasting starting on the night prior to the test and then grouping according to body weight. The animals were orally administered test DPP4 inhibitor (or purified water as a control) (10 mL/kg). At 30 minutes after administration, the animals were then orally administered (10 mL/kg) a solution of test sweetener (or purified water as a control) followed by collecting blood samples at 0, 30, 60, 180 and 300 minutes after administration. These samples were then measured for concentrations of active GLP-1 in plasma.
Measurement of plasma active GLP-1 concentrations and analysis and testing of the measurement results were carried out in the same manner as (1) of Example 1 above.
Fructooligosaccharide (Meiji Seika Kaisha Ltd.), kestose (Meiji Seika Kaisha Ltd., GF2), raffinose (Wako Pure Chemical Industries, Ltd.), melibiose (Wako Pure Chemical Industries, Ltd.), xylooligosaccharide (Suntory Ltd.), xylose (Wako Pure Chemical Industries, Ltd.), xylitol (Wako Pure Chemical Industries, Ltd.), sorbitol (Wako Pure Chemical Industries, Ltd.), D-mannitol (Wako Pure Chemical Industries, Ltd.), erythritol (Wako Pure Chemical Industries, Ltd.), maltitol (Hayashibara Biochemical Laboratories, Inc.), sucralose (San-Ei Gen F.F.I., Inc.) or acesulfame K (Wako Pure Chemical Industries, Ltd.) was used as sweetener and administered orally (10 mL/kg) at 6 g/kg, 3 g/kg or 1 g/kg.
In addition, (2S)-2-cyano-1-[trans-4-(dimethylaminocarbonyl)cyclohexylamino]acetylpyrrolidine benzenesulfonate (hereafter referred to as Compound A′) as DPP4 inhibitor (or purified water as a control) was used at 10 mg/kg and administered orally (10 mL/kg).
Blood active GLP-1 level-increasing action was tested for the cases of combined use of DPP4 inhibitor and each type of sweetener in accordance with the method described in (1) above (n=4 to 5 animals per group).
Blood active GLP-1 concentrations (1 hour after dosing) in the groups dosed with both each type of sweetener (6 g/kg, 3 g/kg or 1 g/kg) and Compound A′ (10 mg/kg) were represented as relative values with respect to blood active GLP-1 concentrations (1 hour after dosing) in the group dosed with fructooligosaccharide (6 g/kg) and Compound A′.

GLP-1 = conditions: Shima et al., Acta Endocrinologica 1990; cited from earlier work
active GLP-1 in plasma [5] = assay: GLP-1 secretion-stimulating action of sweetener in DPP4-deficient rats (blood active GLP-1 level-increasing action), Example 1; assay type: in vivo, rat; conditions: sweetener alone 3 to 6 g/kg/10 mL orally; DPP4-deficient F344DucrlCrlj rats
Procedure: Male […] rats (Charles River Laboratories Japan, Inc.) (7 to 10-week-old at time of use) were used for the study animals. […] rats are known to be rats of a strain having a spontaneous DPP4 gene deficiency (Watanabe, et al., Experientia, 1987, 43:400-401). These study animals were used in the test after fasting starting on the night prior to the test and grouping according to body weight. The animals were orally administered (10 mL/kg) a solution of the test sweetener (or purified water as a control) followed by collecting blood samples from the tip of the tail at 0, 30, 60, 180 and 360 minutes after dosing. These samples were then measured for concentrations of active GLP-1 in plasma. Measurement of plasma active GLP-1 concentrations was carried out in the following manner. […] Plasma GLP-1 concentrations were then measured using the Bio-Plex Suspension Array System (Rat Endocrine LINCOplex Kit; available from Linco Research, Inc.) or the Glucagon-like Peptide-1 (Active) ELISA KitTM (available from Linco Research, Inc.; active GLP-1 measurement kit). The measurement results were tested for the presence of a significant difference between groups by comparing the sweetener-loaded group with the control group using Dunnett's multiple comparison test (two-sided test). […] Biological Experimental Data Statistical Analysis System, from Arm Systex Co., Ltd.) was used to analyze the data.

[6] = sweetener 6 g/kg orally combined with Compound A′ 10 mg/kg orally

CN(C)C(=O)[C@H]1CC[C@H](NCC(=O)N2CCC[C@H]2C#N)CC1.Cl (relative stereo) [Compound A, (2S)-2-cyano-1-[trans-4-(dimethylaminocarbonyl)cyclohexylamino]acetylpyrrolidine hydrochloride]
plasma active GLP-1 levels (active GLP-1 in plasma [1]; Compound A 10 mg/kg orally alone): no increases in plasma active GLP-1 levels observed | body weight as compared with the control group [2]: no changes in body weight

O=C[C@H](O)[C@@H](O)[C@@H](O)CO [L-arabinose]
weight gain [3]: inhibited weight gain in mice

OC[C@@H](O)[C@@H](O[C@H]1O[C@H](CO)[C@@H](O)[C@H](O)[C@H]1O)[C@H](O)[C@@H](O)CO [Maltitol, α-D-glucopyranosyl-(1→4)-D-glucitol]
Plasma active GLP-1 concentration (relative value) (active GLP-1 in plasma [4]; [6]): 422 | blood GLP-1 levels following administration (GLP-1): blood GLP-1 levels are increased

OC[C@@H](O)[C@H](O)[C@@H](O)CO [Xylitol, xylitol]
levels of active GLP-1 in plasma as compared with the control group (active GLP-1 in plasma [5]): remarkably high values | Plasma active GLP-1 concentration (relative value) (active GLP-1 in plasma [4]; sweetener 3 g/kg orally combined with Compound A′ 10 mg/kg orally): 272 | Plasma active GLP-1 concentration (relative value) (active GLP-1 in plasma [4]; [6]): 774

O=C[C@H](O)[C@@H](O)[C@H](O)CO [Xylose, xylose]
levels of active GLP-1 in plasma as compared with the control group (active GLP-1 in plasma [5]): remarkably high values | levels of active GLP-1 in plasma in comparison with the control group (active GLP-1 in plasma [1]; sweetener 6 g/kg orally combined with Compound A 10 mg/kg orally, fructooligosaccharide: at 30, 60, 180 and 300 minutes): remarkable increases in plasma active GLP-1 levels were observed | Plasma active GLP-1 concentration (relative value) (active GLP-1 in plasma [4]; [6]): 597
